Data taken from PubChem BioAssay (NCI).
Several values for one entry are separate records, joined by “and”; a condition that tells them apart may be missing. Equal entries are not always repeated.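 Grown in 96-well plates, cells were treated for 48 hours with each compound at five concentrations. Insufficient inhibition: endpoint recorded as highest concentration tested. At the GI50, growth is halved. The concentration for full growth arrest is given as TGI.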

Legend:
Assay in all cases: growth of human tumour cells (NCI), 48 h
[1] = tested on: NCI-H522 lung
[2] = tested on: MCF7 breast
[3] = tested on: OVCAR-5 ovarian
[4] = tested on: EKVX NSCLC
[5] = tested on: SR leukemia
[6] = tested on: MALME-3M melanoma
[7] = tested on: HOP-62 NSCLC
[8] = tested on: HCC-2998 colon
[9] = tested on: MDA-MB-231 breast
[10] = tested on: MDA-MB-435

Compound	GI50 [1]	TGI [1] [µM]	GI50 [2]	TGI [2] [µM]	GI50 [3] [µM]	TGI [3] [µM]	GI50 [4]	TGI [4]	GI50 [5] [µM]	TGI [5] [µM]	GI50 [6] [µM]	TGI [6] [µM]	GI50 [7]	TGI [7]	GI50 [8] [µM]	TGI [8] [µM]	GI50 [9] [µM]	TGI [9] [µM]	GI50 [10]	TGI [10] [µM]
C=CCn1c(=O)c2cnc(Nc3ccc(N4CCN(C)CC4)cc3)nc2n1-c1ccc2c(n1)[C@@](O)(CC)CC2	0.221 µM	0.888	0.344 µM	> 42.8	1.2	19.5	1.12 µM	22.5 µM	0.193	1.38	0.576	12	1.29 µM	13.8 µM	0.593	3.82	0.558	4.19	0.226 µM	0.795
Oc1c(C(Nc2cccc3ccccc23)c2ccccc2)ccc2cccnc12 (stereo not given)	2.74 µM	7.82	3.2 µM	> 100	7.32	> 100	2.93 µM	41.1 µM	2.76	22.5	5.17	25.7	4.9 µM	> 100 µM	4.56	> 100	12	70.8	5 µM	> 100
COC(=O)CCC(C)[C@H]1CCC2C3C(C[C@H](OC(C)=O)[C@@]21C)[C@@]1(C)CCC2(C[C@H]1C[C@H]3OC(C)=O)OOC1(CCC(C)CC1)OO2 (stereo not given in full)	6.16 µM and 14.6 µM	> 100	5.62 µM and 38.4 µM	> 100	–	> 100	3.79 µM and 10.1 µM	21.5 µM and 52.4 µM	–	> 100	–	> 100	2.06 µM and 8.76 µM	6.4 µM and 28.4 µM	–	> 100	–	> 100	10.9 µM and 43.4 µM	> 100
COc1cc(N2CCN(C(C)C)CC2)ccc1Nc1nc(Nc2cccc3ncccc23)c2cc[nH]c2n1	3.97 µM	9.05	1.3 µM	> 25	2.5	> 25	8.83 µM	> 25 µM	1.14	> 11.1	4.52	9.64	3.18 µM	> 14.9 µM	3.17	9.77	4.37	11	5.47 µM	> 25
